PMC5608908, “Novel scaffolds for inhibition of Cruzipain identified from high-throughput screening of anti-kinetoplastid chemical boxes” (Scientific Reports, 2017)
pIC50: −log10 of the molar value.

Legend:
Cruzipain [1] = biological target: T1, Cruzipain (Trypanosoma cruzi, UniProt P25779); format: biochemical; conditions: for Ki (tight-binding, suggested from IC50 in the order of the enzyme concentration): estimate from IC50 values; for Behavior of dose-response curve: compound 62.5 µM – 7.5 pM
T1 construct: Cruzipain (CZP) was purified to homogeneity from epimastigotes of the Tul 2 strain; from tissue; host or cells: Trypanosoma cruzi epimastigotes, Tul 2 strain (natural enzyme, not recombinant)
Procedure: (§1) Assay was performed in a solid black 384-well plate (final reaction volume ~80 μL) and the release of 7-amino-4-methylcoumarin was monitored continuously at 30 °C with a Beckman Coulter DTX 880 Multimode Reader (Radnor, Pennsylvania, USA) using standard 340 nm excitation and 450 nm emission filter set. Final substrate concentration was set to 2 μM to match previously reported conditions[31] and being close to the KM value for this substrate. Optimal Cruzipain assay concentration (5.8 nM) was selected from 2-fold serial dilutions to match three criteria: (i) being linearly proportional to V0, (ii) display robust signal evolution at 2 μM substrate concentration and (iii) display linear kinetics for enough time to perform several reading cycles (at least 10 cycles, minimum time between cycles: 264 sec) through the 384-wells. In all cases, E-64(final concentration 125 nM) was used as positive inhibition control.
To avoid any positional and/or association bias, we randomly defined the row position for each compound. One μL of compounds stock (10 mM in DMSO) and E-64 (10 mM in DMSO) were added to the first well of column 1, followed by addition of 40 μL of 100 mM NaAc, 5 mM DTT, 0.01% Triton X-100 pH 5.5 buffer. After addition of 20 μL of the same buffer to subsequent wells of the plate, 22 serial 2-fold dilutions were made horizontally. The last two positions of every row were used, alternatively, for C^+ and C^− controls to reduce any positional and/or association bias. Then, 20 μL of activity buffer containing Cruzipain ([…]) were added to each well, except for those corresponding to C^−; completed with 20 μL of activity buffer. After homogenization, 15 minutes of incubation at 30 °C and autofluorescence measurement, 40 μL of a 4 μM solution of Z-FR-AMC substrate (in activity buffer) was added to the previous mix. Data collection and processing were performed exactly as described above. Percentage of Cruzipain residual activity was calculated for each condition according to Eq. 7:7 %Res.Act.^CRUZIPAIN=100⋅[(dF/dt^WELL−µ^C−)/(µ^C+−µ^C−)] where dF/dt^WELL represents the slope of each compound well and µ^C+ and µ^C− the average of Cruzipain (no-inhibition) and substrate (no-enzyme) controls, respectively. The IC50 and Hill slope parameters for each compound were estimated by fitting the four-parameter Hill equation to experimental data from dose-response curves using the GraphPad Prism program (version 5.03).

Cruzipain [2] = biological target: T1, Cruzipain; assay: biochemical; conditions: Cruzipain 11.6 nM; for pIC50: Z-FR-AMC 2 μM, pH 5.5, 30 °C, 15 min preincubation, four-parameter Hill fit; for Hill Slope: four-parameter Hill fit of dose-response curve
[3] = test system: T. cruzi intracellular amastigotes; set-up: method as in PMID 25740547; conditions: T. cruzi intracellular amastigotes vs T. brucei axenic bloodstream forms; cited from earlier work
Cruzipain [4] = biological target: T1, Cruzipain; format: biochemical; conditions: for Hit call by statistically robust cutoff (µC+ − 3 × SDC+): compound 25 µM, singlet
Procedure: as §1
To perform the high-throughput screening, 1 μL of each compound (2 mM in DMSO), E-64 (10 μM in DMSO) or DMSO (negative controls) were dispensed into 384-well Corning black solid-bottom assay plates. Then, 40 μL of 100 mM NaAc, 5 mM DTT, 0.01% Triton X-100 pH 5.5 containing Cruzipain (11,6 nM) were added to each well, plates were homogenized (30 seg, orbital, medium intensity) and each well subjected to a single autofluorescence read (exc/ems = 340/450 nm). Plates were incubated in darkness for 15 min at 30 °C and then 40 μL of Z-FR-AMC (4 μM) in assay buffer were added to each well to start the reaction. After homogenization (30 seg, orbital, medium intensity), the fluorescence of AMC (exc/ems = 340/450 nm) was acquired kinetically for each well (12 read cycles, one cycle every 300 seconds).
Raw screening measurements were used to determine the slope (dF/dt) of progression curves by linear regression for control and compound wells. In the case of control-dependent hit selection criterium, percent inhibition (%Inh) was calculated for each compound according to Eq. 6:6 %Inh=100⋅[1−(dF/dt^WELL−µ^C−)/(µ^C+−µ^C−)] where dF/dt^WELL represents the slope of each compound well and µ^C+ and µ^C− the average of Cruzipain (no-inhibition) and substrate (no-enzyme) controls, respectively.

Cruzipain [5] = biological target: T1, Cruzipain; format: biochemical; conditions: E-64 1 nM, Cruzipain 5.8 nM, 24 replicates
Procedure: as §1, with “In all cases, E-64(final concentration 125 nM) was used as positive inhibition control.” left out

T. cruzi = test system: T. cruzi; set-up: method as in PMID 9705954, PMID 17698625, PMID 16304193; conditions: immunocompetent and immunodeficient mice, dogs; cited from earlier work

T1 sequence (P25779 123-467): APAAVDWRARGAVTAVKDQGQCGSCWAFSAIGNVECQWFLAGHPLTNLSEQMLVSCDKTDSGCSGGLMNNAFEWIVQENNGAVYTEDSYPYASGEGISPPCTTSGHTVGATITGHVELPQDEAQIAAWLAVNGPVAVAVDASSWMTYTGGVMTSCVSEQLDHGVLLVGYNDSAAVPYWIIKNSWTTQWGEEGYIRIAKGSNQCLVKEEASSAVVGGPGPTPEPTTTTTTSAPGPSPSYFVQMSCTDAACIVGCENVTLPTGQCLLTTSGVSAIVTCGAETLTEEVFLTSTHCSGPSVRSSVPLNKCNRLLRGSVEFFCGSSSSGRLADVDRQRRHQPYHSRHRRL

Structure (SMILES) | pIC50 (Cruzipain [2]) | Hill Slope (Cruzipain [2]) | Hit call by statistically robust cutoff (µC+ − 3 × SDC+) (Cruzipain [4]) | other results
CC(C)C[C@H](NC(=O)c1ccc(-c2ccccc2)o1)C(=O)NC1(C#N)CC1 [TCMDC-143393] | 7.52 | −0,957 | – | IC50 range against Cruzipain, in words (Cruzipain [1]): submicromolar range; Ki (tight-binding, suggested from IC50 in the order of the enzyme concentration) (Cruzipain [1]): 1 to 4 × 10^−8 M; IC50 against T. cruzi relative to T. brucei [3]: between one and two orders of magnitude higher
COc1ccc(OC)c(S(=O)(=O)N(Cc2c(F)cccc2F)C2CCN(C#N)C2)c1 (stereo not shown) [TCMDC-143370] | 2.25 | −0,7542 | – | IC50 range against Cruzipain, in words (Cruzipain [1]): low micromolar range
Cl.Cl.O=c1ccc2ccc(F)c3c2n1C[C@H]3CN1CCN(CC(O)c2cc3c(cn2)OCS3)CC1 (stereo partly shown) [TCMDC-143158] | – | – | positive hits | –
COc1cc(OC)cc(C(=O)N[C@@H](CC(C)C)C(=O)NC2(C#N)CC2)c1 [TCMDC-143390] | 7.17 | −0,9354 | – | IC50 range against Cruzipain, in words (Cruzipain [1]): submicromolar range; Ki (tight-binding, suggested from IC50 in the order of the enzyme concentration) (Cruzipain [1]): 1 to 4 × 10^−8 M
COc1cc(F)c2ncc(F)c(CCN3CC[C@H](NCc4cc5c(cn4)OCS5)[C@@H](O)C3)c2c1 [TCMDC-143510] | 4.79 | −0,7998 | – | –
CC(C)C[C@H](NC(=O)[C@H]1O[C@@H]1C(=O)O)C(=O)NCCCCN=C(N)N (relative stereo) [Compound E-64, trans-epoxysuccinyl-L-leucylamido-(4-guanidino)butane, reference compound] | – | – | – | E-64 Control activity slope, Mean, Plate 2 (Cruzipain [4]; E-64 final concentration 125 nM, Cruzipain control 210.84): 6.36 RFU/sec; E-64 Control activity slope, Mean, Plate 1 (Cruzipain [4]; E-64 final concentration 125 nM, Cruzipain control 893.31): 19.30 RFU/sec; average inhibition with respect to Cruzipain control (Cruzipain [5]): 9.87%
CN1CCN(C(=O)N[C@@H](Cc2ccccc2)C(=O)N[C@H](/C=C/S(=O)(=O)c2ccccc2)CCc2ccccc2)CC1 [Compound K777, N-[(2 S)-1-[[(E,3 S)-1-(benzenesulfonyl)-5-phenylpent-1-en-3-yl]amino]-1-oxo-3-phenylpropan-2-yl]-4-methylpiperazine-1-carboxamide] | – | – | – | Efficacy in preclinical models of T. cruzi infection (T. cruzi): efficacious
COc1ccc2ncc(Cl)c(CCN3CCC(NCc4cc5c(cn4)OCS5)C(O)C3)c2n1 (stereo not shown) [TCMDC-143513] | 4.83 | −0,8108 | – | –
NCC(Cc1ccccc1)NC(=O)c1cnc(-c2c[nH]c3ncccc23)s1.O=C(O)C(F)(F)F.O=C(O)C(F)(F)F (stereo not shown) [TCMDC-143176] | – | – | – | Behavior of dose-response curve (Cruzipain [1]): activation phenotype at highest concentrations
COc1ccc2ncc(=O)n(CCN3CC[C@H](NCc4ncc(Cl)c5[nH]ncc45)[C@H](O)C3)c2n1 [TCMDC-143373] | – | – | positive hits | Behavior of dose-response curve (Cruzipain [1]): erratic behavior
COc1ccc2nccc([C@H](O)CN3CC[C@H](NC(=O)c4ccc(Br)cc4)[C@@H](O)C3)c2n1 [TCMDC-143527] | – | – | positive hits | –
CC1(Oc2cncc(Cl)c2)CCN(Cc2cc3ccccc3[nH]2)C1 (stereo not shown) [TCMDC-143162] | – | – | positive hits | –
NC(N)=Nc1nc(-c2ccc(NC(N)=NCCN3CCCC3)cc2)cs1 [TCMDC-143640] | 2.47 | −0,9825 | – | –
